From ChEMBL document CHEMBL6177930, “2-(4-Bromobenzyl) tethered 4-amino aryl/alkyl-5,6,7,8-tetrahydrobenzo[4,5]thieno[2,3-d]pyrimidines: design, synthesis, anticancer assessment via dual topoisomerase-I/II inhibition, and in silico studies” (RSC Med Chem, 2025)
The source made the active and inactive calls. The calls are words filed in the database; no cut-off is given here.

Tests used:
FaDu [1] = test: Inhibition of cell migration in human FaDu cells assessed as reduction in wound closure at 1 to 2 uM measured after 48 hrs by bright field microscopic analysis; format: functional, cell-based; conditions: dose 1-2 µM
[2] = target: T1, Prostaglandin G/H synthase 2 (Homo sapiens) (UniProt P35354); test: Inhibition of human recombinant COX-2 at 10 uM relative to control
T1 sequence (whole entry): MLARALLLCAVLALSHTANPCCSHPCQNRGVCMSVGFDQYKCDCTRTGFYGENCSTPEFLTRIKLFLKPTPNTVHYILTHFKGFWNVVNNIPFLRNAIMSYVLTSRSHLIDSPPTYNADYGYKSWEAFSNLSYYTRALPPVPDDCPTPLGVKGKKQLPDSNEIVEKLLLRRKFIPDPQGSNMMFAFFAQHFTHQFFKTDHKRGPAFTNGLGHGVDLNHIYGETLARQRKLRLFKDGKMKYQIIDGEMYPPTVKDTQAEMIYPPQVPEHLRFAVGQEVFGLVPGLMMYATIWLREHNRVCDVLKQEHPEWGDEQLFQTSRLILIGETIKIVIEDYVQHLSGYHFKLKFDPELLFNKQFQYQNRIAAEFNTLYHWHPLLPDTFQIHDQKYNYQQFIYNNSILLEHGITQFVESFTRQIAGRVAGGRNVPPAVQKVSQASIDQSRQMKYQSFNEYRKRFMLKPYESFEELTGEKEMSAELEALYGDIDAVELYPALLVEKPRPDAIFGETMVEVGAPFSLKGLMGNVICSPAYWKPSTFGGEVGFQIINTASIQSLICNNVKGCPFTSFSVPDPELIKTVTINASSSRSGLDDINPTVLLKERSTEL

[3] = target: DNA topoisomerase 2-alpha (Homo sapiens) (UniProt P11388); test: Inhibition of human topoisomerase-II alpha assessed as reduction in decatenation activity using kinetoplast DNA as substrate incubated for 30 mins by EtBr staining based agarose gel electrophoresis method
FaDu [4] = test: Induction of apoptosis in human FaDu cells assessed as chromatin condensation at 1 to 5 uM by DAPI staining based analysis; format: functional, cell-based; conditions: dose 1-5 µM
FaDu [5] = test: Induction of autophagy in human FaDu cells assessed as reduction in cell density at 1 to 5 uM measured after 48 hrs by acridine orange staining based fluorescence microscopy analysis; format: functional; conditions: dose 1-5 µM
FaDu [6] = test: Inhibition of cell migration in human FaDu cells assessed as reduction in wound closure at 5 uM measured after 48 hrs by bright field microscopic analysis; format: functional, cell-based
[7] = target: T2, DNA topoisomerase 1 (Homo sapiens) (UniProt P11387); test: Inhibition of human topoisomerase-I extracted from baculovirus expression system using SC-DNA as substrate incubated for 30 mins by EtBr staining based agarose gel electrophoresis method
T2 sequence (whole entry): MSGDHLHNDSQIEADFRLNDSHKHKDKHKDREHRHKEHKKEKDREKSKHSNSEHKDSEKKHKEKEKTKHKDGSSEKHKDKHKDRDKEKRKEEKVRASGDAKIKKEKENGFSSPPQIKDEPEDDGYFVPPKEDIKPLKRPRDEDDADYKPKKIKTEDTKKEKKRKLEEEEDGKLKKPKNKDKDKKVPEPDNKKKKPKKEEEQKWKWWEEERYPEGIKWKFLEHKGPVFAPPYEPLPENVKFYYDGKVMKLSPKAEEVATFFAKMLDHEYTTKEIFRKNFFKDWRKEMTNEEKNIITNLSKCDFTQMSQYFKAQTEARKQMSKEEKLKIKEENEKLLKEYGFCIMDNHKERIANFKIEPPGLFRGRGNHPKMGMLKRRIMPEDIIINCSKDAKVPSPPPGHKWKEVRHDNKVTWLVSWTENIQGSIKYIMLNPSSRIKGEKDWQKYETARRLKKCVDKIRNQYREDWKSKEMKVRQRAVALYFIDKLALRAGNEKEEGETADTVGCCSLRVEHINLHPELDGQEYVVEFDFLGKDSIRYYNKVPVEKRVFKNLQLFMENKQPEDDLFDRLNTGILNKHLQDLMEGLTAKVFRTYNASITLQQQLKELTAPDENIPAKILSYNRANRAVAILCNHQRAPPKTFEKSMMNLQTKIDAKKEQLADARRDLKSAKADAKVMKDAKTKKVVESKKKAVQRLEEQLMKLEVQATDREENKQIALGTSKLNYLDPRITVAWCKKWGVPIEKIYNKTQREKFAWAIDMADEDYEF

T47D = test: Antiproliferative activity against human T47D cells assessed as inhibition of cell growth at 10 uM measured after 48 to 72 hrs by MTT assay relative to control; format: functional; conditions: time 48-72 hrs
FaDu [8] = test: Inhibition of colony formation in human FaDu cells assessed as reduction in colony formation at 1 to 5 uM incubated for 48 hrs crystal violet staining based analysis (reference value: 62.58%); format: functional; conditions: dose 1-5 µM
Mitochondrial membrane = test: Induction of mitochondrial membrane potential loss in human FaDu cells assessed as decrease in green fluorescence incubated for 48 hrs by Rhodamine 123 staining based fluorescence microscopy analysis; format: cell membranes; conditions: dose 1-5 µM
HEK293 = test: Antiproliferative activity against HEK293 cells assessed as inhibition of cell growth at 10 to 25 uM measured after 48 to 72 hrs by MTT assay; format: toxicity, cell-based; conditions: human, hek293, 25 µM; dose lower 10 µM, time lower 48 hrs, dose upper 25 µM, time upper 72 hrs
FaDu [9] = test: Induction of apoptosis in human FaDu cells assessed as apoptotic bodies at 1 to 5 uM by DAPI staining based analysis; format: functional, cell-based; conditions: dose 1-5 µM
MCF7 [10] = test: Antiproliferative activity against human MCF7 cells assessed as inhibition of cell growth at 10 uM measured after 48 to 72 hrs by MTT assay relative to control; format: functional; conditions: time 48-72 hrs
A549 = test: Antiproliferative activity against human A549 cells assessed as inhibition of cell growth at 10 uM measured after 48 to 72 hrs by MTT assay relative to control; format: functional; conditions: time 48-72 hrs
FaDu [11] = test: Induction of morphological changes in human FaDu cells assessed as reduction in cell density at 2 to 5 uM incubated for 48 hrs by bright field microscope based analysis; format: functional; conditions: dose 2-5 µM
FaDu [12] = test: Antiproliferative activity against human FaDu cells assessed as inhibition of cell growth at 10 uM measured after 48 to 72 hrs by MTT assay relative to control; format: functional; conditions: time 48-72 hrs
FaDu [13] = test: Induction of autophagy in human FaDu cells assessed as increase in acidic vesicular organelles measured after 48 hrs by acridine orange staining based fluorescence microscopy analysis; format: functional, cell-based; conditions: dose 1-5 µM
MCF7 [14] = test: Induction of cell cycle arrest in human MCF7 cells assessed as accumulation of cells at G0/G1 phase measured after 24 hrs by PI staining based flow cytometry analysis (reference value: 45.2%); format: functional
FaDu [15] = test: Inhibition of cell migration in human FaDu cells assessed as reduction in wound closure at 5 uM measured after 48 hrs by bright field microscopic analysis relative to control; format: functional
[16] = Antiproliferative activity against human HCC cells assessed as inhibition of cell growth at 10 uM measured after 48 to 72 hrs by MTT assay relative to control; format: functional; conditions: time 48-72 hrs
MCF7 [17] = test: Induction of cell cycle arrest in human MCF7 cells assessed as accumulation of cells at G2/M phase measured after 24 hrs by PI staining based flow cytometry analysis (reference value: 14.2%); format: functional

DNA topoisomerase 2-alpha (Homo sapiens), sequence (P11388 whole entry): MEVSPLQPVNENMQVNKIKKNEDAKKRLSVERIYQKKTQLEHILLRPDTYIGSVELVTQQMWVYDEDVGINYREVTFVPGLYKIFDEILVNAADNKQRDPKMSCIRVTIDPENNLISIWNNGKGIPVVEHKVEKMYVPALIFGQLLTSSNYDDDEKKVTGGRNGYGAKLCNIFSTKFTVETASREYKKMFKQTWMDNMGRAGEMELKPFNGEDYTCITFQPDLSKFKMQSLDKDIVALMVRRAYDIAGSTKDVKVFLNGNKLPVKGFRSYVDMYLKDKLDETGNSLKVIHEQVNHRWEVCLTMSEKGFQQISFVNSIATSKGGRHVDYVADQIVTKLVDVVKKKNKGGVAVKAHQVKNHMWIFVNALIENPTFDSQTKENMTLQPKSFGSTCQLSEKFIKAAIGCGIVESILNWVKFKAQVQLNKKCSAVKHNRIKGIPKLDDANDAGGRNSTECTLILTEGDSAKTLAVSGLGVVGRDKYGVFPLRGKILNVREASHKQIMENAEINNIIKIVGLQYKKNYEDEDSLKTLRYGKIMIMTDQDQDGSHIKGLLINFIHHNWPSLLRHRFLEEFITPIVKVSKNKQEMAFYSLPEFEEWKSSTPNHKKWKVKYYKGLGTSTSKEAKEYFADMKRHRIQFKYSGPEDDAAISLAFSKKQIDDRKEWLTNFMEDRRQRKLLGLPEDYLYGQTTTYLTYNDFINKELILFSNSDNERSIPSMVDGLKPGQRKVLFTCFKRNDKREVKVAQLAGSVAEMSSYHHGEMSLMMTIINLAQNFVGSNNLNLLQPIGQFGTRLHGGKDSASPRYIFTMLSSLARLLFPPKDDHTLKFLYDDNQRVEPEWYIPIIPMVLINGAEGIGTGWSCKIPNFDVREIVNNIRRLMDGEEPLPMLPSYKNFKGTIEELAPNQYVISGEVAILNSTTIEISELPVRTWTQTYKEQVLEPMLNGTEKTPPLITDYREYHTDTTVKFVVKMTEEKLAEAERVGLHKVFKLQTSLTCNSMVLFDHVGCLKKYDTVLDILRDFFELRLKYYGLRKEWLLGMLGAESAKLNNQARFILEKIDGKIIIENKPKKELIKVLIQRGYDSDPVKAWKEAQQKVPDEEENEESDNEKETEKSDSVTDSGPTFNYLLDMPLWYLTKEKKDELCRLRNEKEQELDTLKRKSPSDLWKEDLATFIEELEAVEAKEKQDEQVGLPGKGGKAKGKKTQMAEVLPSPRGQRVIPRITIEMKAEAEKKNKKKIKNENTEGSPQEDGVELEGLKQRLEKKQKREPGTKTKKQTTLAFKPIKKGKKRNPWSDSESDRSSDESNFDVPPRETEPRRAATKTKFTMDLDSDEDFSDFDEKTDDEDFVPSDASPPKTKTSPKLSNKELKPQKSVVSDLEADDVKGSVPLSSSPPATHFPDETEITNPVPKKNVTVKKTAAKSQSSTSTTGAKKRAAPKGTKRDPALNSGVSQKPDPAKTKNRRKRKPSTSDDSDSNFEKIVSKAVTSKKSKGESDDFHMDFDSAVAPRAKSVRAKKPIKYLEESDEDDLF

Structure (SMILES): Brc1ccc(Cc2nc(N3CCN(c4ccncc4)CC3)c3c4c(sc3n2)CCCC4)cc1
- inhibition (FaDu [1]): Active
- inhibition [2]: 75.7%
- inhibition [3]: Active; Compound Showed Higher Inhibition Activity Than Etoposide
- Activity (FaDu [4]): Active
- Activity (FaDu [5]): Active
- inhibition (FaDu [6]): Active
- inhibition [7]: Active; Compound Showed Potent Inhibition Activity Than Camptothecin
- inhibition at 10 µM (T47D): 83.4%
- inhibition (INH) (FaDu [8]): 19.35%
- Activity (Mitochondrial membrane): Dose-dependent-effect
- Activity (HEK293): Non-toxic
- Activity (FaDu [9]): Active
- inhibition at 10 µM (MCF7 [10]): 15.1%
- inhibition at 10 µM (A549): 39.2%
- Activity (FaDu [11]): Active
- inhibition at 10 µM (FaDu [12]): 83.5%
- Activity (FaDu [13]): Dose-dependent-effect
- Activity (MCF7 [14]): 20.2%
- inhibition at 5 µM (FaDu [15]): 24.4%
- inhibition at 10 µM [16]: 2.28%
- Activity (MCF7 [17]): 52.8%
